Data from patent publication US20230012560A1, “HEPATITIS B ANTIVIRAL AGENTS” (TAIGEN BIOTECHNOLOGY CO., LTD., priority 2019, published 2023).

Tested on: HBV (HepAD38 cells)
Experiment: Real-Time PCR Assay (extracellular HBV DNA from HepAD38 culture supernatants)
Assay type: cell-based
Settings: Hepatitis B virus, 120 h, compound treatment for 5 days without tetracycline, extracellular DNA in culture supernatant quantified by real-time PCR, read-out: EC50 (50% effective concentration)
Method: HepAD38 cells were seeded and cultured on 96-well plates. After incubation for 2 days, cells were fed with compound-containing media without tetracycline. After compound treatment for 5 days, culture supernatants were collected. Extracellular DNA was then extracted using LabTurbo DNA mini kit, and quantified by real-time PCR.
Real-time PCR was performed using an ABI QuantStudio 3 system in a 96-well optical plate format. The PCR mixture containing forward primer (5′-[…]-3′) (SEQ ID NO.1), reverse primer (5′-GGTGAGTGATTGGAGGTTG-3′) (SEQ ID NO.2) and Luna Universal qPCR Master Mix in a final volume of 24 μl was incubated at 95° C. for 10 min followed by 45 cycle of incubation at 95° C. for 10 s and 60° C. for 10 s. Regression analysis was performed using GraphPad Prism 5 to calculate the 50% effective concentration (EC50) values.

SMILES | EC50 [µM]
Cn1cc(S(=O)(=O)NC2CCN(C(=O)C(N)=O)CC2)c(F)c1C(=O)Nc1cc(F)c(F)c(F)c1 [Compound 68] | < 0.1
CCNC(=O)C(=O)N1CCC(NS(=O)(=O)c2cn(C)c(C(=O)Nc3cccc(Cl)c3)c2F)CC1 [Compound 72] | < 0.1
CCONC(=O)C(=O)N1CC[C@@H](NS(=O)(=O)c2cn(C)c(C(=O)Nc3cc(F)c(F)c(F)c3)c2F)C1 [Compound 35] | < 0.1
CCNC(=O)C(=O)N1CCC(NS(=O)(=O)c2cn(C)c(C(=O)Nc3cc(F)c(F)c(F)c3)c2F)C(C)(C)C1 (centres unmarked) [Compound 86] | < 0.1
COCCS(=O)(=O)N1CC[C@@H](NS(=O)(=O)c2cn(C)c(C(=O)Nc3ccc(F)c(F)c3)c2F)C1 [Compound 4] | < 0.1
CNS(=O)(=O)N1CC[C@@H](NS(=O)(=O)c2c(F)c(C(=O)Nc3ccc(F)c(F)c3)n(C)c2Br)C1 [Compound 8] | < 0.1
CNS(=O)(=O)N1CC[C@@H](NS(=O)(=O)c2cn(C)c(C(=O)Nc3ccc(F)c(C(F)F)c3)c2F)C1 [Compound 16] | < 0.1
CNS(=O)(=O)N1CCN(S(=O)(=O)c2cn(C)c(C(=O)Nc3cc(F)c(F)c(F)c3)c2F)CC1 [Compound 66] | 0.1 to 0.3
CNS(=O)(=O)N[C@@H]1CCN(S(=O)(=O)c2cn(C)c(C(=O)Nc3cc(F)c(F)c(F)c3)c2F)C1 [Compound 60] | 0.3 to 1
CCNC(=O)C(=O)N1CCC(NS(=O)(=O)c2cn(C)c(C(=O)Nc3ccc(F)c(Cl)c3F)c2F)CC1 [Compound 74] | < 0.1
CNC(=O)C(=O)N1CC[C@@H](NS(=O)(=O)c2cn(C)c(C(=O)Nc3ccc(F)c(Cl)c3)c2F)C1 [Compound 41] | < 0.1
CN(C)S(=O)(=O)N1CC[C@@H](NS(=O)(=O)c2cn(C)c(C(=O)Nc3ccc(F)c(F)c3)c2F)C1 [Compound 9] | < 0.1
CNC(=O)C(=O)N1CC2CC2(NS(=O)(=O)c2cn(C)c(C(=O)Nc3cc(F)c(F)c(F)c3)c2F)C1 (centres unmarked) [Compound 55] | < 0.1
CCNC(=O)C(=O)N1CCC(NS(=O)(=O)c2cn(/C=C/F)c(C(=O)Nc3cc(F)cc(Cl)c3)c2F)CC1 [Compound 90] | < 0.1
CNC(=O)C(=O)N1CC[C@@H](NS(=O)(=O)c2c(F)c(C(=O)Nc3cc(F)c(F)c(F)c3)n3c2CCCC3)C1 [Compound 46] | 0.1 to 0.3
CCS(=O)(=O)N1CCC2(NS(=O)(=O)c3cn(C)c(C(=O)Nc4ccc(F)c(F)c4)c3F)CC2C1 (centres unmarked) [Compound 26] | < 0.1
CCNC(=O)C(=O)N1CC[C@@H](NS(=O)(=O)c2cn(C)c(C(=O)Nc3ccc(F)c(F)c3)c2F)C(C)(C)C1 [Compound 99] | < 0.1
CCNC(=O)C(=O)N1CCC(NS(=O)(=O)c2cn(C)c(C(=O)Nc3cc(F)c(F)c(F)c3)c2Cl)CC1 [Compound 76] | < 0.1
CN(C)C(=O)C(=O)N1CC[C@@H](NS(=O)(=O)c2cn(C)c(C(=O)Nc3cc(F)c(F)c(F)c3)c2F)C1 [Compound 30] | < 0.1
Cn1cc(S(=O)(=O)N[C@@H]2CCN(S(=O)(=O)C3CCCC3)C2)c(F)c1C(=O)Nc1ccc(F)c(F)c1 [Compound 3] | 0.1 to 0.3
CCS(=O)(=O)N1CC2CC1CN2S(=O)(=O)c1cn(C)c(C(=O)Nc2ccc(F)c(F)c2)c1F (centres unmarked) [Compound 67] | 0.3 to 1

SMILES | EC50 [µM]
CCNC(=O)C(=O)N1CCC(NS(=O)(=O)c2cn(C)c(C(=O)Nc3ccc(F)c(C)c3)c2F)CC1 [Compound 71] | < 0.1
CNC(=O)C(=O)N1CC[C@@H](NS(=O)(=O)c2cn(CC(F)F)c(C(=O)Nc3ccc(F)c(F)c3)c2F)C1 [Compound 48] | < 0.1
CNC(=O)C(=O)N1CC[C@@H](NS(=O)(=O)c2c(Cl)c(C(=O)Nc3cc(F)c(F)c(F)c3)n3c2CCC3)C1 [Compound 47] | 0.1 to 0.3
CNC(=O)C(=O)N1CCC2CC2(NS(=O)(=O)c2cn(C)c(C(=O)Nc3cc(F)c(F)c(F)c3)c2F)C1 (centres unmarked) [Compound 59] | < 0.1
O=C(NC1CC1)C(=O)N1CCC(NS(=O)(=O)c2c(F)c(C(=O)Nc3cc(F)c(F)c(F)c3)n3c2CCC3)CC1 [Compound 77] | < 0.1
CNS(=O)(=O)N1CCC[C@@H](NS(=O)(=O)c2cn(C)c(C(=O)Nc3cccc(C(F)(F)F)c3)c2F)C1 [Compound 21] | < 0.1
CCNC(=O)C(=O)NC1CCN(S(=O)(=O)c2cn(C)c(C(=O)Nc3cc(F)c(F)c(F)c3)c2F)CC1 [Compound 63] | 0.1 to 0.3
CNC(=O)C(=O)N1C[C@@H]2[C@H](C1)[C@@H]2NS(=O)(=O)c1cn(C)c(C(=O)Nc2cc(F)c(F)c(F)c2)c1F [Compound 100] | < 0.1
CCNC(=O)C(=O)N1CCC(NS(=O)(=O)c2c(C)c(C(=O)Nc3cc(F)c(F)c(F)c3)n3c2CCC3)CC1 [Compound 79] | 0.3 to 1
Cn1cc(S(=O)(=O)NC2CCN(C(=O)C(=O)NC3COC3)CC2(F)F)c(F)c1C(=O)Nc1ccc(F)c(F)c1 (centres unmarked) [Compound 92] | < 0.1
CC(=O)OCCNC(=O)C(=O)N1CC[C@@H](NS(=O)(=O)c2cn(C)c(C(=O)Nc3cc(F)c(F)c(F)c3)c2F)C1 [Compound 38] | < 0.1
CCNC(=O)C(=O)N1CCC(NS(=O)(=O)c2c(F)c(C(=O)Nc3cc(F)c(F)c(F)c3)n(C)c2Br)CC1 [Compound 81] | < 0.1
CCNC(=O)C(=O)N1CCC(NS(=O)(=O)c2c(Cl)c(C(=O)Nc3cc(F)c(F)c(F)c3)n3c2CCC3)CC1 [Compound 78] | < 0.1
CCNC(=O)C(=O)N1CCC(NS(=O)(=O)c2cn(C)c(C(=O)Nc3ccc(F)c(F)c3)c2F)C(C)C1 (centres unmarked) [Compound 83] | < 0.1
CCNC(=O)C(=O)N1CCC(NS(=O)(=O)c2c(F)c(C(=O)Nc3ccc(F)c(F)c3)n(C)c2C)CC1 [Compound 80] | < 0.1
CCNC(=O)C(=O)N1CCC(NS(=O)(=O)c2cn(C)c(C(=O)Nc3cc(F)c(F)c(F)c3)c2F)CC12CC2 (centres unmarked) [Compound 88] | < 0.1
CCNC(=O)C(=O)N1CC(C)C(NS(=O)(=O)c2cn(C)c(C(=O)Nc3cc(F)c(F)c(F)c3)c2F)C1 (centres unmarked) [Compound 54] | < 0.1
CCn1cc(S(=O)(=O)N[C@@H]2CCN(S(=O)(=O)NC)C2)c(F)c1C(=O)Nc1ccc(F)c(F)c1 [Compound 17] | < 0.1
CNC(=O)C(=O)N1CC[C@@H](NS(=O)(=O)c2cn(C)c(C(=O)Nc3ccc(F)c(C(F)F)c3)c2F)C1 [Compound 40] | < 0.1
CC(C)NC(=O)C(=O)N1CC[C@@H](NS(=O)(=O)c2cn(C)c(C(=O)Nc3cc(F)c(F)c(F)c3)c2F)[C@@H](C)C1 [Compound 97] | < 0.1
C#CCNC(=O)C(=O)N1CC[C@@H](NS(=O)(=O)c2cn(C)c(C(=O)Nc3ccc(F)c(F)c3)c2F)C1 [Compound 34] | < 0.1

SMILES | EC50 [µM]
CCn1cc(S(=O)(=O)N[C@@H]2CCCN(C(=O)C(N)=O)C2)c(F)c1C(=O)Nc1ccc(F)c(F)c1 [Compound 58] | < 0.1
CNS(=O)(=O)N1CC[C@@H](NS(=O)(=O)c2c(F)c(C(=O)Nc3ccc(F)c(F)c3)n3c2CCCC3)C1 [Compound 11] | 0.1 to 0.3
Cn1cc(S(=O)(=O)N[C@@H]2CCN(S(=O)(=O)c3ccc(F)cc3)C2)c(F)c1C(=O)Nc1ccc(F)c(F)c1 [Compound 13] | < 0.1
CNS(=O)(=O)N1CCC(NS(=O)(=O)c2cn(C)c(C(=O)Nc3ccc(F)c(F)c3)c2F)C(F)(F)C1 (centres unmarked) [Compound 27] | < 0.1
Cn1cc(S(=O)(=O)N[C@@H]2CCN(S(=O)(=O)C3(C)CC3)C2)c(F)c1C(=O)Nc1ccc(F)c(F)c1 [Compound 2] | < 0.1
Cn1cc(S(=O)(=O)N[C@@H]2CCN(C(=O)C(=O)NCCO)C2)c(F)c1C(=O)Nc1cc(F)c(F)c(F)c1 [Compound 37] | < 0.1
CC[C@@H](C)NC(=O)C(=O)N1CCC(NS(=O)(=O)c2cn(C)c(C(=O)Nc3cc(F)c(F)c(F)c3)c2F)CC1 [Compound 75] | < 0.1
CNS(=O)(=O)NC1CCN(S(=O)(=O)c2cn(C)c(C(=O)Nc3cc(F)c(F)c(F)c3)c2F)CC1 [Compound 62] | 0.3 to 1
CCNC(=O)C(=O)N1CCC(NS(=O)(=O)c2cn(C)c(C(=O)Nc3cc(F)c(F)c(F)c3)c2F)CC1 [Compound 69] | < 0.1
COCCNC(=O)C(=O)N1CC[C@@H](NS(=O)(=O)c2cn(C)c(C(=O)Nc3ccc(F)c(F)c3)c2F)C1 [Compound 32] | < 0.1
CNS(=O)(=O)N1CC[C@@H](NS(=O)(=O)c2c(F)c(C(=O)Nc3ccc(F)c(F)c3)n3c2CCC3)C1 [Compound 10] | < 0.1
CNC(=O)C(=O)N1CC[C@@H](NS(=O)(=O)c2c(F)c(C(=O)Nc3ccc(F)c(F)c3)n(C)c2C)C1 [Compound 44] | < 0.1
Cn1cc(S(=O)(=O)N[C@@H]2CCN(S(=O)(=O)/C=C/c3ccccc3)C2)c(F)c1C(=O)Nc1ccc(F)c(F)c1 [Compound 14] | 0.1 to 0.3
CNS(=O)(=O)N1CCC(C)C(NS(=O)(=O)c2cn(C)c(C(=O)Nc3ccc(F)c(F)c3)c2F)C1 (centres unmarked) [Compound 19] | < 0.1
Cn1cc(S(=O)(=O)NC2CCN(S(=O)(=O)C3(C)CC3)CC2)c(F)c1C(=O)Nc1ccc(F)c(F)c1 [Compound 24] | < 0.1
CNS(=O)(=O)N1CCCC(C)(NS(=O)(=O)c2cn(C)c(C(=O)Nc3ccc(F)c(F)c3)c2F)C1 (centres unmarked) [Compound 20] | < 0.1
C=CCn1cc(S(=O)(=O)N[C@@H]2CCN(C(=O)C(=O)NC)C2)c(F)c1C(=O)Nc1ccc(F)c(F)c1 [Compound 52] | < 0.1
CNC(=O)C(=O)N1CC[C@@H](NS(=O)(=O)c2cn(CC3CC3)c(C(=O)Nc3ccc(F)c(F)c3)c2F)C1 [Compound 50] | 0.1 to 0.3
CNS(=O)(=O)N1CCC(C)(NS(=O)(=O)c2cn(C)c(C(=O)Nc3ccc(F)c(F)c3)c2F)CC1 [Compound 25] | < 0.1
CCNC(=O)C(=O)N1CC(NS(=O)(=O)c2cn(C)c(C(=O)Nc3cc(F)c(F)c(F)c3)c2F)C1 [Compound 56] | < 0.1
